Tests used:
Details in all cases: Compound concentration 100.0 nM
[1] = biological target: Transient receptor potential cation channel subfamily M member 6 (Homo sapiens) (UniProt Q9BX84)
[2] = biological target: Cyclin-dependent kinase 2 homolog (Plasmodium falciparum (isolate 3D7)) (UniProt P61075)
[3] = biological target: Mitogen-activated protein kinase 1 (Homo sapiens) (UniProt P28482)
[4] = biological target: Calcium/calmodulin-dependent protein kinase type 1D (Homo sapiens) (UniProt Q8IU85)
[5] = biological target: Serine/threonine-protein kinase OSR1 (Homo sapiens) (UniProt O95747)
[6] = biological target: Tyrosine-protein kinase Lyn (Homo sapiens) (UniProt P07948)
[7] = biological target: Mitogen-activated protein kinase 7 (Homo sapiens) (UniProt Q13164)
[8] = biological target: Serine/threonine-protein kinase TNNI3K (Homo sapiens) (UniProt Q59H18)
[9] = biological target: NUAK family SNF1-like kinase 2 (Homo sapiens) (UniProt Q9H093)
[10] = biological target: Serine/threonine-protein kinase pim-3 (Homo sapiens) (UniProt Q86V86)
[11] = biological target: Ephrin type-A receptor 1 (Homo sapiens) (UniProt P21709)
[12] = biological target: Serine/threonine-protein kinase ULK1 (Homo sapiens) (UniProt O75385)
[13] = biological target: Dual specificity tyrosine-phosphorylation-regulated kinase 1B (Homo sapiens) (UniProt Q9Y463)
[14] = biological target: Mitogen-activated protein kinase 11 (Homo sapiens) (UniProt Q15759)
[15] = biological target: Tyrosine-protein kinase FRK (Homo sapiens) (UniProt P42685)
[16] = biological target: Phosphatidylinositol 4-phosphate 5-kinase type-1 alpha (Homo sapiens) (UniProt Q99755)
[17] = biological target: Cyclin-dependent kinase 18 (Homo sapiens) (UniProt Q07002)
[18] = biological target: Ephrin type-B receptor 3 (Homo sapiens) (UniProt P54753)
[19] = test system: Epidermal growth factor receptor (Homo sapiens), P00533 [UNDEFINED MUTATION]
[20] = biological target: Serine/threonine-protein kinase LATS1 (Homo sapiens) (UniProt O95835)
[21] = biological target: Phosphatidylinositol 5-phosphate 4-kinase type-2 beta (Homo sapiens) (UniProt P78356)
[22] = biological target: Tyrosine-protein kinase JAK1 (Homo sapiens) (UniProt P23458)
[23] = biological target: Serine/threonine-protein kinase Nek5 (Homo sapiens) (UniProt Q6P3R8)
[24] = biological target: Tyrosine-protein kinase JAK1 (Homo sapiens) (UniProt P23458); remark: listed apart in the source
[25] = test system: Phosphatidylinositol 4,5-bisphosphate 3-kinase catalytic subunit alpha isoform (Homo sapiens), P42336 [H1047Y]
[26] = test system: Tyrosine-protein kinase ABL1 (Homo sapiens), P00519 [E255K]
[27] = biological target: Serine/threonine-protein kinase Nek7 (Homo sapiens) (UniProt Q8TDX7)
[28] = test system: Epidermal growth factor receptor (Homo sapiens), P00533 [T790M]
[29] = biological target: Protein kinase C epsilon type (Homo sapiens) (UniProt Q02156)
[30] = biological target: Mast/stem cell growth factor receptor Kit (Homo sapiens) (UniProt P10721)
[31] = biological target: Testis-specific serine/threonine-protein kinase 1 (Homo sapiens) (UniProt Q9BXA7)
[32] = biological target: Serine/threonine-protein kinase ULK2 (Homo sapiens) (UniProt Q8IYT8)
[33] = biological target: Vascular endothelial growth factor receptor 2 (Homo sapiens) (UniProt P35968)
[34] = biological target: Uncharacterized serine/threonine-protein kinase SBK3 (Homo sapiens) (UniProt P0C264)
[35] = biological target: Serine/threonine-protein kinase Nek3 (Homo sapiens) (UniProt P51956)
[36] = biological target: BDNF/NT-3 growth factors receptor (Homo sapiens) (UniProt Q16620)
[37] = biological target: Focal adhesion kinase 1 (Homo sapiens) (UniProt Q05397)
[38] = biological target: Activin receptor type-1-like (Homo sapiens) (UniProt P37023)
[39] = biological target: Serine/threonine-protein kinase PAK 4 (Homo sapiens) (UniProt O96013)
[40] = biological target: Mitogen-activated protein kinase 6 (Homo sapiens) (UniProt Q16659)
[41] = biological target: Proto-oncogene tyrosine-protein kinase ROS (Homo sapiens) (UniProt P08922)
[42] = biological target: Casein kinase II subunit alpha' (Homo sapiens) (UniProt P19784)
[43] = biological target: Mitogen-activated protein kinase kinase kinase 19 (Homo sapiens) (UniProt Q56UN5)
[44] = biological target: Serine/threonine-protein kinase 16 (Homo sapiens) (UniProt O75716)
[45] = biological target: RAF proto-oncogene serine/threonine-protein kinase (Homo sapiens) (UniProt P04049)
Chain of RAF proto-oncogene serine/threonine-protein kinase (Homo sapiens) (P04049 whole entry): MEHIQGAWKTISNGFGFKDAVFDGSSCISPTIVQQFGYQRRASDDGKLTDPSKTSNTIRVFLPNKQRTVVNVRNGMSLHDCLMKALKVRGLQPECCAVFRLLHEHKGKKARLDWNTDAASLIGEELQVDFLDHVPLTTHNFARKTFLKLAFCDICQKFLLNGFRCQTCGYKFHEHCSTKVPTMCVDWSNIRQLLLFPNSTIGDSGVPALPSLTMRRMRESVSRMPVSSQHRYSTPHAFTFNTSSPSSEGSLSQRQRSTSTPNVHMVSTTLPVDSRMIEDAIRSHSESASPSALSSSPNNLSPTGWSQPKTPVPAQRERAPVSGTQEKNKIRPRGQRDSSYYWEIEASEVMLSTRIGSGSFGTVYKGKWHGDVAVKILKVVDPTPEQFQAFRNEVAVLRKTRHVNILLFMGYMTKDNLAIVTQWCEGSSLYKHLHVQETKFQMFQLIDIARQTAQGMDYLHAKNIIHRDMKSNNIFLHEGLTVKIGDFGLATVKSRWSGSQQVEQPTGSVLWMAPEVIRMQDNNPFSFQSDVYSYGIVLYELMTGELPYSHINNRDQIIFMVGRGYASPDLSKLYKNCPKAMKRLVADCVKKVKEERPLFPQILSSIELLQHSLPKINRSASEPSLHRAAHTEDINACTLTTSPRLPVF

Chain of Tyrosine-protein kinase JAK1 (Homo sapiens) (P23458 whole entry, canonical isoform): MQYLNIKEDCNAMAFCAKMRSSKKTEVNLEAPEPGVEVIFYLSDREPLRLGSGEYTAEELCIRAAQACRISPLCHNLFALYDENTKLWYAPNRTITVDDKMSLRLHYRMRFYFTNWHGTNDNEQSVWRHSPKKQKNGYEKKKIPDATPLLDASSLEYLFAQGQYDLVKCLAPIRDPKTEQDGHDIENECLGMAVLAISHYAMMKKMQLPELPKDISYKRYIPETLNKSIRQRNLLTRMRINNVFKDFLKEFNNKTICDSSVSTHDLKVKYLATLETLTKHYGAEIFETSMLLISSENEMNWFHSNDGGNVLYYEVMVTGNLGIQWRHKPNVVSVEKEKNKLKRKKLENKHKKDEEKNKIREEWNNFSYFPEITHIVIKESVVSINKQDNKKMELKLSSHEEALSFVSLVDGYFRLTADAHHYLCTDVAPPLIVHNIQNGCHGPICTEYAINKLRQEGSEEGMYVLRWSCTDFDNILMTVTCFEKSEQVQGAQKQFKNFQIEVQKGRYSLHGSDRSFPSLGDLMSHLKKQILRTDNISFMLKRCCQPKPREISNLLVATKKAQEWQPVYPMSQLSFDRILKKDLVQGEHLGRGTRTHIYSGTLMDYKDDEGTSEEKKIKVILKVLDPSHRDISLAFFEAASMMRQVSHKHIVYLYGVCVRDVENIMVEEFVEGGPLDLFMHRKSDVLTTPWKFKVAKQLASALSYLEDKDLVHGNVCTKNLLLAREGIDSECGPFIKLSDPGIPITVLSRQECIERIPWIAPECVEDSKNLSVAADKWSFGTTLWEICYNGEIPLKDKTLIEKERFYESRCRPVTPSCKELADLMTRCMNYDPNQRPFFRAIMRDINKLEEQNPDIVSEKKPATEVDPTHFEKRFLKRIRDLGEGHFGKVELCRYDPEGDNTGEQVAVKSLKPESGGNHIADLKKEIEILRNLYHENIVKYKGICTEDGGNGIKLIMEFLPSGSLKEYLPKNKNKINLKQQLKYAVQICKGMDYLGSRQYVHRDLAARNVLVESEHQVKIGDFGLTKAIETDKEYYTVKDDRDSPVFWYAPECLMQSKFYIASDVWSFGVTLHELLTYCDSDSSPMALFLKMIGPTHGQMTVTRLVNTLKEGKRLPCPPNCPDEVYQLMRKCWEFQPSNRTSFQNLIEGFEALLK
Chain of Protein kinase C epsilon type (Homo sapiens) (Q02156 whole entry): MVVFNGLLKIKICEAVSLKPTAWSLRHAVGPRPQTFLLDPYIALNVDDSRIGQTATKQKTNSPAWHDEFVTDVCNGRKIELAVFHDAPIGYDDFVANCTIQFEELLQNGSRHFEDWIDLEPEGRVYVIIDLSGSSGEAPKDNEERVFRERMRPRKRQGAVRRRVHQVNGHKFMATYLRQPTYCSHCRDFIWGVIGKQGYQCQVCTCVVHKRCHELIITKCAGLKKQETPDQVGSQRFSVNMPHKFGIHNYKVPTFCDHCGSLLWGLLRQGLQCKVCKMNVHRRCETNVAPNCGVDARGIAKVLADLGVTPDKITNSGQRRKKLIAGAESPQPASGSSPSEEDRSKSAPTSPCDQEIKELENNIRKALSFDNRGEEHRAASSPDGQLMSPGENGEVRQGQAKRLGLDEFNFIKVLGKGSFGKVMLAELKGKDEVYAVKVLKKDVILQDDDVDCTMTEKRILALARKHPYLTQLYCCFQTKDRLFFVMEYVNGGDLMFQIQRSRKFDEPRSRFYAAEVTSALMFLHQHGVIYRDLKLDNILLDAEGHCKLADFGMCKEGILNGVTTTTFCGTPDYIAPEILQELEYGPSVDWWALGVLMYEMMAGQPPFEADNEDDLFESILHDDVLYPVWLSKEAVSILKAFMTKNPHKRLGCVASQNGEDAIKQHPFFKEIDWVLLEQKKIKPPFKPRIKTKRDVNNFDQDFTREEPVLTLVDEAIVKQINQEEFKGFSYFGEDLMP
Chain of Serine/threonine-protein kinase OSR1 (Homo sapiens) (O95747 2-527 limits assumed): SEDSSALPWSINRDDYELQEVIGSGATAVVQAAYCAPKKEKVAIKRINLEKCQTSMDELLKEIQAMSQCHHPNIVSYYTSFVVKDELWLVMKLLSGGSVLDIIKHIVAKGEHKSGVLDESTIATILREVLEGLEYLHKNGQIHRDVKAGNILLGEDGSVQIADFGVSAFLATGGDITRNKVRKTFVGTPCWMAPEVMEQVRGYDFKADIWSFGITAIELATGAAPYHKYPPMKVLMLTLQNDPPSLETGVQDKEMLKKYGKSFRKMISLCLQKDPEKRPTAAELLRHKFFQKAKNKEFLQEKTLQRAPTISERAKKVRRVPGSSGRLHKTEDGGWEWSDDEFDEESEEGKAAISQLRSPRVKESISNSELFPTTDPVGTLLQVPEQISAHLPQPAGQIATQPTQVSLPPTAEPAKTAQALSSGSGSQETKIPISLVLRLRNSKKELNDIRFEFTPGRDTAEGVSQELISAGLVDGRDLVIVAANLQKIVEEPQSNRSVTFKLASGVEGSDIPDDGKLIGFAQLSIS
Chain of Casein kinase II subunit alpha' (Homo sapiens) (P19784 whole entry, looked up): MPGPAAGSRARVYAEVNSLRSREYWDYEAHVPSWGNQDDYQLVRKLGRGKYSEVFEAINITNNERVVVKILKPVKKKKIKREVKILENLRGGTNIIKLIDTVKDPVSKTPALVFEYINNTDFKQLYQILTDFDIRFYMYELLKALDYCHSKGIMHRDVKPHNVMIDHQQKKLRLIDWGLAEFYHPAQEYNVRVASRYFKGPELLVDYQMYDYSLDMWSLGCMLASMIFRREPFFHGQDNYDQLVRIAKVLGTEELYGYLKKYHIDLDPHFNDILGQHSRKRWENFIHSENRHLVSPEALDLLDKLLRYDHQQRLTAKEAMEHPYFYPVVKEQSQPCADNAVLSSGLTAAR
Chain of Mitogen-activated protein kinase 1 (Homo sapiens) (P28482 whole entry): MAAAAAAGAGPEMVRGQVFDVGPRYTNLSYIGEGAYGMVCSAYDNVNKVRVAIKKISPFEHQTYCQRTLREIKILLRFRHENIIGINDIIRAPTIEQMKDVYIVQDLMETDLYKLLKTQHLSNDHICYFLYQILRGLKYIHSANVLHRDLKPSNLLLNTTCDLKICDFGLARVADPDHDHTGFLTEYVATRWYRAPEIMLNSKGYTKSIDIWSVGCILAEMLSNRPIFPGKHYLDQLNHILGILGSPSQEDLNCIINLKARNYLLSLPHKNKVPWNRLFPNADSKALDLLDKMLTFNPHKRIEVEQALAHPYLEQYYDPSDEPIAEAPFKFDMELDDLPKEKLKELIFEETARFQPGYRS
Chain of Serine/threonine-protein kinase Nek7 (Homo sapiens) (Q8TDX7 whole entry, looked up): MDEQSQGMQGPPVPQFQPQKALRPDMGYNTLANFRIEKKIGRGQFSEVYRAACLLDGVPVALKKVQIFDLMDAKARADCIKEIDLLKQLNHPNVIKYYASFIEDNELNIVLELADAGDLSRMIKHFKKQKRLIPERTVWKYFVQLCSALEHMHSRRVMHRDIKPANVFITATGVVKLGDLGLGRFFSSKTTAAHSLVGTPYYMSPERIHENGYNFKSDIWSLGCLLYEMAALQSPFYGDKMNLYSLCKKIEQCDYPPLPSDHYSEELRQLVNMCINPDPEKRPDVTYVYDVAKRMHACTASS
Chain of Cyclin-dependent kinase 2 homolog (Plasmodium falciparum (isolate 3D7)) (P61075 whole entry): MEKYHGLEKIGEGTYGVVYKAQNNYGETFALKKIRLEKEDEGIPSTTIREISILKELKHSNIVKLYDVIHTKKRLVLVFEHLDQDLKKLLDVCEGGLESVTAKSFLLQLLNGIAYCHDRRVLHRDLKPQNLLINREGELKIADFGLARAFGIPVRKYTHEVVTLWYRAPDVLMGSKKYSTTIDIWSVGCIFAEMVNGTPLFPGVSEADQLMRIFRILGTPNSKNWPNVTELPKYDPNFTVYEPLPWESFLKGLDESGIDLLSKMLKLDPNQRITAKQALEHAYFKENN
Chain of Serine/threonine-protein kinase 16 (Homo sapiens) (O75716 whole entry): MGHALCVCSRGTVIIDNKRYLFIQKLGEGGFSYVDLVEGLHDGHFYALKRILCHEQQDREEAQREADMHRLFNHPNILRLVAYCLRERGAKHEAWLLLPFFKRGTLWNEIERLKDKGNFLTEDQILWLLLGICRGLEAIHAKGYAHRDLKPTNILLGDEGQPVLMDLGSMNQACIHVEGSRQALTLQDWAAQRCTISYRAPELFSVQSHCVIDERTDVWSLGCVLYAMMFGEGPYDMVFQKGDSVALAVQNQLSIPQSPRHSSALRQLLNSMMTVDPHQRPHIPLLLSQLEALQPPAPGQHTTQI

Nc1c(C(=O)NCc2ccc(C(=O)NCCCC3CCCCC3)cc2)cnn1-c1ccccc1 [SR-318]
residual activity [1]: 100% | residual activity [2]: 100% | residual activity [3]: 100% | residual activity [4]: 93% | residual activity [5]: 100% | residual activity [6]: 100% | residual activity [7]: 78% | residual activity [8]: 100% | residual activity [9]: 100% | residual activity [10]: 91% | residual activity [11]: 100% | residual activity [12]: 100% | residual activity [13]: 100% | residual activity [14]: 3.4% | residual activity [15]: 100% | residual activity [16]: 100% | residual activity [17]: 100% | residual activity [18]: 96% | residual activity [19]: 100% | residual activity [20]: 100% | residual activity [21]: 100% | residual activity [22]: 100% | residual activity [23]: 99% | residual activity [24]: 100% | residual activity [25]: 77% | residual activity [26]: 100% | residual activity [27]: 99% | residual activity [28]: 100% | residual activity [29]: 100% | residual activity [30]: 70% | residual activity [31]: 81% | residual activity [32]: 100% | residual activity [33]: 100% | residual activity [34]: 87% | residual activity [35]: 100% | residual activity [36]: 85% | residual activity [37]: 99% | residual activity [38]: 100% | residual activity [39]: 99% | residual activity [40]: 92% | residual activity [41]: 83% | residual activity [42]: 100% | residual activity [43]: 77% | residual activity [44]: 100% | residual activity [45]: 100%

O=C(NCCCC1CCCCC1)c1ccc(CNC(=O)c2cnn(-c3ccccc3)c2C(F)(F)F)cc1 [SR-321]
residual activity [1]: 94% | residual activity [2]: 100% | residual activity [3]: 93% | residual activity [4]: 100% | residual activity [5]: 91% | residual activity [6]: 100% | residual activity [7]: 100% | residual activity [8]: 79% | residual activity [9]: 100% | residual activity [10]: 100% | residual activity [11]: 100% | residual activity [12]: 100% | residual activity [13]: 100% | residual activity [14]: 100% | residual activity [15]: 77% | residual activity [16]: 100% | residual activity [17]: 100% | residual activity [18]: 79% | residual activity [19]: 99% | residual activity [20]: 100% | residual activity [21]: 96% | residual activity [22]: 89% | residual activity [23]: 100% | residual activity [24]: 100% | residual activity [25]: 100% | residual activity [26]: 92% | residual activity [27]: 97% | residual activity [28]: 97% | residual activity [29]: 88% | residual activity [30]: 100% | residual activity [31]: 94% | residual activity [32]: 100% | residual activity [33]: 97% | residual activity [34]: 100% | residual activity [35]: 100% | residual activity [36]: 100% | residual activity [37]: 100% | residual activity [38]: 100% | residual activity [39]: 100% | residual activity [40]: 100% | residual activity [41]: 100% | residual activity [42]: 88% | residual activity [43]: 89% | residual activity [44]: 100% | residual activity [45]: 99%
